Results from PubChem BioAssay AID720598 (Broad Institute, 2013).

Test system: HT-29 viability, CellTiter-Glo ATP luminescence, 8-48 h
Test: time-course viability loss in HT-29 cells – cell-based, CellTiter-Glo, multiple timepoints, dry powder, HRas target identification project, dose response (AID 720598)

| Structure (SMILES) | AC50 (measured here: 8 h treatment) [nM] | AC50 (measured here: 24 h treatment) [nM] | AC50 (measured here: 48 h treatment) [nM] |
| --- | --- | --- | --- |
| Cc1onc(C(=O)N2CCN(C(c3ccc(Cl)cc3)c3ccc(Cl)cc3)CC2)c1[N+](=O)[O-] | 2760 | 594 | 544 |
| CCC(=O)N(c1ccc(OC)c(Cl)c1)C(C(=O)NCCc1ccccc1)c1cccs1 (stereo unspecified) |  |  | > 70000 |
| CC(C)(C)OC(=O)NCCOCCOCCOc1ccc(N(C(=O)CCl)C(C(=O)NCCc2ccccc2)c2cccs2)cc1Cl (stereo unspecified) | 742 | 448 | 287 |
| COc1ccc(N(C(=O)CCl)C(C(=O)NCCc2ccccc2)c2cccs2)cc1Cl (stereo unspecified) | 729 | 103 | 56.1 |
| COC(=O)c1ccc([C@@H]2c3[nH]c4ccccc4c3C[C@@H](C(=O)OC)N2C(=O)CCl)cc1 | 486 | 133 | 85.6 |
| C#CCCCC(=O)NCCOCCOCCOc1ccc(N(C(=O)CCl)C(C(=O)NCCc2ccccc2)c2cccs2)cc1Cl (stereo unspecified) | 11900 | 1510 | 1300 |
